Columns and labels:
[1] = system: VSMCs stimulated with AngII; assay: Pro-fibrotic response: extracellular collagen content (Sirius Red kit) in VSMCs stimulated with AngII; type: cell-based; details: rat VSMCs, 100 nM AngII 48 hours; JG26 1 ̂mol/L, erlotinib 1 ̂mol/L, PBA 10 mmol/L pretreated 30 min; adenovirus 100 m.o.i.
Description: (§1) VSMCs were prepared from thoracic aortas of male Sprague-Dawley rats by the explant method as described previously^21. VSMCs were subcultured in DMEM containing 10% fetal bovine serum, penicillin and streptomycin. Cells from passage 3 to 10 at 80˜90% confluence were made quiescent by incubation with serum-free medium for 2-3 days.
To evaluate pro-fibrotic response, serum-starved VSMCs were stimulated with 100 nM AngII for 48 hours and extracellular cellular collagen content was quantified by Sirius Red collagen quantification kit (Chondrex) according to the manufacture's protocol. Recombinant adenoviral vector encoding rat ADAM17 siRNA was created and specificity and efficiency has been reported^11. VSMCs were infected with 100 m.o.i. adenovirus prior to the AngII stimulation as reported previously^11. ADAM17 selective inhibitor compound #21 (JG26)^8 was generated as reported. VSMCs were pretreated
with 1 ̂mol/L JG26 or vehicle (0.1% DMSO in final) for 30 min prior to the AngII stimulation. 4-phenylbutyrate (PBA) was obtained from Scandinavian Formulas and solubilized in DMEM. VSMCs were pretreated with 10 mmol/L PBA for 30 min.
Erlotinib (OSI Pharmaceuticals) was obtained from Genentech. VSMCs were pretreated with 1 ̂mol/L erlotinib for 30 min.
To test for the role of ADAM17 in AngII-induced vascular fibrosis, extracellular collagen content was evaluated in VSMCs stimulated with AngII. Adenovirus encoding ADAM17 siRNA^11 attenuated the AngII-induced enhancement in collagen content (FIG. 4A and 4B). Treatment of VSMCs with ADAM17 antibody A9B8, a highly-selective ADAM17 inhibitor JG26/compound 21^22, an EGFR kinase inhibitor erlotinib or a chemical ER chaperone PBA also attenuated AngII-induced enhancement in collagen content (FIG. 4C). As shown with the ADAM17 siRNA^11, A9B8 as well as JG26 inhibited AngII-induced EGFR transactivation assessed with an auto-phosphorylation site antibody (FIG. 4D).

EGFR = assay: AngII-induced EGFR transactivation in VSMCs, immunoblotting with auto-phosphorylation site antibody; type: cell-based; details: rat VSMCs, 100 nM AngII, auto-phosphorylation site antibody (Tyr1068)
Description: as §1
Immunoblotting (IB) was performed as previously described^21. Quiescent VSMCs grown on 6-well plates were stimulated with 100 nM AngII (Sigma) for specified durations. The reaction was terminated by the replacement of medium with 100 ̂L of 1xSDS lysis buffer. 40 ̂L of the cell lysates were subjected to SDS-PAGE gel electrophoresis and electrophoretically transferred to a nitrocellulose membrane. The membranes were then exposed to primary antibodies overnight at 4° C. After incubation with the peroxidase linked secondary antibody for 1 h at room temperature, immunoreactive proteins were visualized using a chemiluminescence reaction kit. […]
To test for the role of ADAM17 in AngII-induced vascular fibrosis, extracellular collagen content was evaluated in VSMCs stimulated with AngII. […] As shown with the ADAM17 siRNA^11, A9B8 as well as JG26 inhibited AngII-induced EGFR transactivation assessed with an auto-phosphorylation site antibody (FIG. 4D).

Compound: 4-phenylbutyrate [PBA]
- AngII-induced enhancement in collagen content [1]: attenuated

Compound: NC(=O)NCCC[C@@H](NS(=O)(=O)c1ccc(OCc2cc(Br)cc(Br)c2)cc1)C(=O)NO [JG26, reference compound]
- AngII-induced EGFR transactivation (EGFR): inhibited
- AngII-induced enhancement in collagen content [1]: attenuated

Compound: C#Cc1cccc(Nc2ncnc3cc(OCCOC)c(OCCOC)cc23)c1 [erlotinib, Erlotinib]
- AngII-induced enhancement in collagen content [1]: attenuated
